# Assay results from the supplement of paper PMC10307832.
# Legend:
# Assay in all cases: relative viability (nuclei count vs DMSO), 5 days (fraction); higher = more cells survive
# Vandetanib + Dasatinib = compound: COc1cc2/c(=N/c3ccc(Br)cc3F)nc[nH]c2cc1OCC1CCN(C)CC1 [Vandetanib] + Cc1nc(Nc2ncc(C(=O)Nc3c(C)cccc3Cl)s2)cc(N2CCN(CCO)CC2)n1 [Dasatinib] (partner 0.075 µM)
# Outline: (§1)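 Relative viability divides the nuclei count in treated wells by that in vehicle wells. Lung cancer cell lines were seeded in 1536-well plates, dosed by pin tool the next day, and fixed and stained after 5 days in one step with final 0.05% Triton X-100, 1% formaldehyde and 1 ug/ml Hoechst. Dosing was a single drug or a fixed anchor-drug dose plus five library-drug doses (not always all listed) in √10 steps, and values are medians of duplicate plates imaged at 4×.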
# Vandetanib + Crizotinib = compound: COc1cc2/c(=N/c3ccc(Br)cc3F)nc[nH]c2cc1OCC1CCN(C)CC1 [Vandetanib] + C[C@@H](Oc1cc(-c2cnn(C3CCNCC3)c2)cnc1N)c1c(Cl)ccc(F)c1Cl [Crizotinib] (partner 1 µM)
# Outline: as §1
# [1] = compound: C1=CC=C2C(=C1)N=C(S2)C(C#N)C3=NC(=NC=C3)NCCC4=CN=CC=C4 + C[C@@H](Oc1cc(-c2cnn(C3CCNCC3)c2)cnc1N)c1c(Cl)ccc(F)c1Cl [Crizotinib] (partner 1 µM)
# Outline: as §1
# [2] = compound: C1=CC=C2C(=C1)N=C(S2)C(C#N)C3=NC(=NC=C3)NCCC4=CN=CC=C4 + CS(=O)(=O)N1CCN(Cc2cc3nc(-c4cccc5[nH]ncc45)nc(N4CCOCC4)c3s2)CC1 [Pictilisib] (partner 1 µM)
# Outline: as §1
Cell Line,relative viability (Vandetanib + Dasatinib; first compound 0.02 µM),relative viability (Vandetanib + Dasatinib; first compound 0.06325 µM),relative viability (Vandetanib + Dasatinib; first compound 0.2 µM),relative viability (Vandetanib + Dasatinib; first compound 0.6325 µM),relative viability (Vandetanib + Dasatinib; first compound 2 µM),relative viability (Vandetanib + Crizotinib; first compound 0.02 µM),relative viability (Vandetanib + Crizotinib; first compound 0.06325 µM),relative viability (Vandetanib + Crizotinib; first compound 0.2 µM),relative viability (Vandetanib + Crizotinib; first compound 0.6325 µM),relative viability (Vandetanib + Crizotinib; first compound 2 µM),relative viability ([1]; first compound 0.005 µM),relative viability ([1]; first compound 0.01581 µM),relative viability ([1]; first compound 0.05 µM),relative viability ([1]; first compound 0.1581 µM),relative viability ([1]; first compound 0.5 µM),relative viability ([2]; first compound 0.005 µM),relative viability ([2]; first compound 0.01581 µM),relative viability ([2]; first compound 0.05 µM),relative viability ([2]; first compound 0.1581 µM),relative viability ([2]; first compound 0.5 µM)
NCI-H2126,0.564,0.564,0.626,0.559,0.467,0.983,0.964,0.99,0.97,0.959,0.825,0.989,1.02,1.04,0.881,0.499,0.493,0.417,0.526,0.487
NCI-H650,0.425,0.511,,0.433,0.365,0.709,0.703,0.758,0.605,0.724,0.484,0.67,0.568,0.672,0.704,0.728,0.845,0.804,0.934,0.901
201T,0.573,0.527,0.578,0.589,0.575,1,1.03,0.978,0.95,0.969,0.978,1.03,1.02,1.07,0.995,0.7,0.69,0.621,0.662,0.698
LU99A,0.427,0.521,0.387,0.416,0.636,0.546,0.498,0.63,0.522,0.577,0.457,0.686,0.599,0.599,0.51,0.281,0.354,0.336,0.394,0.338
NCI-H647,0.151,0.207,0.175,0.178,0.198,1.06,1.07,1.1,1.06,0.981,,1,0.89,1.38,0.874,,0.301,0.391,0.556,0.452
LC-2-ad,0.574,0.471,0.49,0.317,0.211,0.468,0.46,0.493,0.441,0.414,0.413,,0.425,0.502,0.414,0.437,0.524,0.487,0.556,0.426
LK-2,0.261,0.24,0.295,0.239,0.221,0.217,0.222,0.225,0.219,0.233,,,0.216,0.209,0.238,,,0.531,0.597,0.685
NCI-H520,0.139,0.228,0.218,0.191,0.225,0.923,0.894,0.859,0.772,0.655,0.564,0.856,0.947,0.882,0.569,0.178,0.328,0.307,0.362,0.256
NCI-H1975,0.349,0.361,0.341,0.423,0.373,0.887,0.943,0.922,0.994,0.852,0.766,1.18,0.954,1.14,0.667,0.262,0.28,0.284,0.307,0.255
